Data reported in the supplement of paper PMC4862054.

Tests used:
Settings in all cases: 72 h
HCC1937 = system: HCC1937
In short: (§1)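 The reported EC50 was fitted from percent-inhibition dose-response curves and censored at the highest concentration. Breast cancer cell lines (20 µl suspension) were added to 384-well plates containing compound in 5 µl medium and incubated 72 h, and viability was read with 2.5 µl CellTiter-Blue over 2 h at 37 °C at 560/590 nm. Each plate was normalised to vehicle and a positive kill control and checked by Z'-factor, and rows with zero drug sensitivity score were dropped.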

HCC1599 = system: HCC1599
In short: as §1

CAL-120 = system: CAL-120
In short: as §1

HCC1143 = system: HCC1143
In short: as §1

MFM-223 = system: MFM-223
In short: as §1

MDA-MB-468 = system: MDA-MB-468
In short: as §1

Row | SMILES | EC50, CellTiter-Blue viability (HCC1937) | EC50, CellTiter-Blue viability (HCC1599) | EC50, CellTiter-Blue viability (CAL-120) | EC50, CellTiter-Blue viability (HCC1143) | EC50, CellTiter-Blue viability (MFM-223) | EC50, CellTiter-Blue viability (MDA-MB-468)
1 | COc1cccc2c1C(=O)c1c(O)c3c(c(O)c1C2=O)C[C@@](O)(C(C)=O)C[C@@H]3O[C@H]1C[C@H](N)[C@H](O)[C@H](C)O1 [Daunorubicin] | 24.7 nM | 444 nM | 41.8 nM | 46.8 nM | 667 nM | 98.2 nM
2 | COC1=C2C[C@@H](C)C[C@H](OC)[C@H](O)[C@@H](C)/C=C(\C)[C@H](OC(N)=O)[C@@H](OC)/C=C\C=C(/C)C(=O)NC(=CC1=O)C2=O [Geldanamycin] | 47.1 nM | 270 nM | 38.1 nM | 36.6 nM | 90 nM | 64.7 nM
3 | COC1=CC(c2cc3ccccc3[nH]2)=N/C1=C\c1[nH]c(C)cc1C [Obatoclax] | 22.4 nM | 678 nM | 25.9 nM | 171 nM | 1010 nM | 105 nM
4 | COC(=O)C[C@](O)(CCCC(C)(C)O)C(=O)O[C@@H]1C(OC)=C[C@]23CCCN2CCc2cc4c(cc2[C@H]13)OCO4 [Omacetaxine] | 9.68 nM | 18 nM | 16.9 nM | 46.9 nM | 45.3 nM | 35.7 nM
5 | CC(=O)O[C@H]1C(=O)[C@@]2(C)[C@H]([C@H](OC(=O)c3ccccc3)[C@]3(O)C[C@H](OC(=O)[C@H](O)[C@@H](NC(=O)c4ccccc4)c4ccccc4)C(C)=C1C3(C)C)[C@]1(OC(C)=O)CO[C@@H]1C[C@@H]2O [Paclitaxel] | 4.22 nM | 111 nM | 3.55 nM | 7.4 nM | 4.49 nM | 2.7 nM
6 | CCS(=O)(=O)c1cccc(-c2cc(C(=O)NC3CCN(C)CC3)c(C)c3[nH]c4ncc(C)cc4c23)c1 [TAK-901] | 142 nM | 110 nM | 94.4 nM | 225 nM | 56.6 nM | 442 nM
